One experiment concerns NCI H716 cells. It counts as cell-based, human.
The next experiment deals with GLUTag cells. Nature of the experiment: GLP-1 secretion by GLUTag cells, measured by ELISA. It counts as cell-based, murine. Particulars: cell-free supernatants or PMA positive control on GLUTag cells. As for the experimental part: S. epidermidis has GLP-1 stimulatory activity in vitro in NCI H716 and GLUTag cells—In order to identify bacterial strains capable of eliciting GLP-1 secretion, 1500 microbial supernatants were screened using human NCI H716 cells. […] Following 16S rRNA sequencing, all 45 stimulatory strains came back as strains of S. epidermidis. Incubation of cell-free supernatants from two of the stimulatory strains with the highest activity, S. epidermidis JA1 and JA8 on NCI H716 cells stimulated a release of 3155±276 pM and 2518±141 pM GLP-1, respectively (FIG. 6A). GM17 media control and the PMA positive control had GLP-1 levels of 565±188 pM and 1767±120 pM GLP-1, respectively, indicating an approximate 2-fold increase in activity by JA1 over the positive PMA control. It was confirmed that JA1 and JA8 could stimulate GLP-1 secretion in a second model, murine GLUTag cells. S. epidermidis JA1 and JA8 led to the release of 1123±107 pM and 984±40 pM GLP-1, respectively (FIG. 6B). The GM17 media control and the PMA positive control had GLP-1 levels of 327±35 pM and 305±14 pM, respectively, indicating no real stimulation by PMA. […] None of the S. epidermidis bacterial cell-free supernatants had detectable toxicity on NCI H716 (FIG. 6C) and GLUTag (FIG. 6D) cells, as determined by a PrestoBlue resazurin-based analysis which measures aerobic respiration as an indicator of cell viability.
Background: An ELISA detects its analyte on a solid surface through an enzyme-linked reagent.

Description for NCI H716 cells: Identifying the microbial-derived compound responsible for GLP-1 stimulatory activity—To narrow down the bacterial component responsible for GLP-1 secretion in vitro, and for metabolic disease marker modulation in vivo, size fractionation studies were performed using Amicon centrifuge filtration tubes and exposure of the fractions on NCI H716 cells.
To further identify the component responsible for the activity, bacterial supernatants were analyzed using a Thermo Orbitrap Fusion mass spectrometer equipped with an Easy Nanospray HPLC system.

As to `CCCCCCCCCCCCCC(=O)O[C@@H]1[C@@H](C)[C@@]2(O)[C@@H](C=C(CO)C[C@]3(O)C(=O)C(C)=C[C@@H]23)[C@@H]2C(C)(C)[C@]12OC(C)=O` [PMA, reference compound], the “release of GLP-1” value in the experiment with NCI H716 cells (cell-free supernatants or PMA positive control on NCI H716 cells) stood at 1767 ± 120 pM; in the experiment with GLUTag cells it was 305 ± 14 pM.
On to MAADIISTIGDLVKWIIDTVNKFTKK [24_25insT], for which the “GLP-1 stimulatory activity (GLP-1)” value in the experiment with NCI H716 cells (20 μM peptide, NCI H716 cells) stood at 1283.5 ± 798 pM. The “GLP-1 stimulatory activity of synthesized peptides” value in the experiment with NCI H716 cells (varying concentrations, NCI H716 cells) is reported as “activity”.

(Values after patent US11028141B2, “Therapeutic for the prevention and/or treatment of weight gain and/or diabetes” (priority 2016, dated 2021).)
